Results as given in patent US20100021941A1, “METHODS OF IDENTIFYING MODULATORS OF UBIQUITIN LIGASES” (PROGENRA, INCORPORATED, priority 2008, published 2010).

Tests used:
[1] = target: T1, E1, E2 and E3 coupled enzyme reaction (GST-E1/His6-UbcH5c/6× His-SUMO-CARP2 ligase) (Homo sapiens, UniProt P22314+P61077+Q8WZ73); test: E3 ligase assay (autoubiquitylation) on 6× His-SUMO-UBA2 coated plates, anti-ubiquitin antibody/FITC fluorescence detection; assay type: biochemical; settings: enzymes pre-incubated with compound 30 minutes at room temperature; reaction 60 minutes at 37° C.; 500 nM 6× His SUMO-CARP2; triplicate; FIG. 6A
T1 construct: fused on or other part: GST on E1; His6 on UbcH5c; 6x His-SUMO on CARP2; The plate is coated with 6x His-SUMO-UBA2 (yeast Rad23 residues 351-398) as capture reagent
T1 sequence (P22314 2-1058): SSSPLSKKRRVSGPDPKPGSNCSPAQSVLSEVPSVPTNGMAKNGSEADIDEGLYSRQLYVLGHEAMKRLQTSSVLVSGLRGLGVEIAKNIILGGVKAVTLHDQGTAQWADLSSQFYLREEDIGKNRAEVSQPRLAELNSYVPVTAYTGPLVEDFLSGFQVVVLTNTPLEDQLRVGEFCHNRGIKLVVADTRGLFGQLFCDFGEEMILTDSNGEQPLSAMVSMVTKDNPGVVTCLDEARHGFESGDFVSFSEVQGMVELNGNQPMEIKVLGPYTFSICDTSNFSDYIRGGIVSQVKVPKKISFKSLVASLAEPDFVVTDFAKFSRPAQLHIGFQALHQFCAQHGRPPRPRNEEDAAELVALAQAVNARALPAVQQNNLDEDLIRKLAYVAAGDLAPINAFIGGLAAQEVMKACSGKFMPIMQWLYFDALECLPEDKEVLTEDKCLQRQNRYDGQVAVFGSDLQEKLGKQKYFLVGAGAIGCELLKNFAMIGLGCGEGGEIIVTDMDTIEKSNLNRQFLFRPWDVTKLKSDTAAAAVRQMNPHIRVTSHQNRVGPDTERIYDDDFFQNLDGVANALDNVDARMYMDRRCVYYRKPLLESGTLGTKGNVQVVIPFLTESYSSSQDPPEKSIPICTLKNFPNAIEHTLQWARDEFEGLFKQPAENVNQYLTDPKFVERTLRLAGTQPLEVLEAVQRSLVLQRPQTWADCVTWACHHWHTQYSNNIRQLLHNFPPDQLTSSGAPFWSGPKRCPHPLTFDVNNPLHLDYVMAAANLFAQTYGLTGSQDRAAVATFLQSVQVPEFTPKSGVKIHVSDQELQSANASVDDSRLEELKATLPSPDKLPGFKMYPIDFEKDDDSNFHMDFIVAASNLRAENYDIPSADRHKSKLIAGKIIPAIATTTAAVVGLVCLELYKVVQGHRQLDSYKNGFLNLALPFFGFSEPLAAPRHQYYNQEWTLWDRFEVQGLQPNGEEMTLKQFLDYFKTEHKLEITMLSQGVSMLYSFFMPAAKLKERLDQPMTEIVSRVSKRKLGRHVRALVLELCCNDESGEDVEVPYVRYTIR
T1 sequence (P61077 whole entry, the tested form may be a part): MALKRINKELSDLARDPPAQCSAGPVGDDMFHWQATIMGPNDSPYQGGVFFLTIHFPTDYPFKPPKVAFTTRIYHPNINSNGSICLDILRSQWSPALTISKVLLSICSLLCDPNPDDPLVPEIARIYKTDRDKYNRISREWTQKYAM
T1 sequence (Q8WZ73 whole entry, the tested form may be a part): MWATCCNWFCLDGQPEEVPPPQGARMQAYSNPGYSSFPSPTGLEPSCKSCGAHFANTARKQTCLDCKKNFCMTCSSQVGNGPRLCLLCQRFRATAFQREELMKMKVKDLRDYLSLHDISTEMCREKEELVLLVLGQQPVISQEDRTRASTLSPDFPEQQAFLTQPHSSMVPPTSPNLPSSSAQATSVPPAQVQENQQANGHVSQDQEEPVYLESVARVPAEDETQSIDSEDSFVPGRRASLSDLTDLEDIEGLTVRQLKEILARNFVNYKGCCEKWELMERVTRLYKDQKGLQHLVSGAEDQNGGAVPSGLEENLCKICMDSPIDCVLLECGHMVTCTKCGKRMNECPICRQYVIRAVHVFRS
Procedure: Medium binding plates (Costar, USA) were coated with 100 μl of 0.1 mg/ml solution of 6× His-SUMO-UBA2 overnight at 4° C. The plates were blocked with 200 μl of 3% BSA in 1× phosphate buffered saline (1× PBS, pH 7.4) for 3 hours at 4° C. and washed with 1× PBS three times. E3 reactions were carried out as follows. For IC50 experiments, various concentrations of NEM, iodoacetamide, and ubistatin A were added to individual wells in triplicate. Controls contained 5 μl of 10% DMSO or 50 mM NEM. The compounds were supplemented with 20 μl of enzyme mixture containing GST-E1 (10 nM)/His6-UbcH5c (100 nM), 6× His SUMO-CARP2 (500 nM) prepared in assay buffer (50 mM Tris-HCl, pH8.0, 2 mM MgCl2, 0.1 mM DTT) and incubated at room temperature for 30 minutes. A pFastBac-GST-E1 vector was expressed and purified from insect cells according to published methods. Beaudenon and Huibregtse, Methods Enzymol, 398: 3-8 9 (2005). A PCR product encoding UbcH5c was generated using the primers 5′-[…]-3′ (SEQ ID NO:24) and 5′-[…]-3′ (SEQ ID NO:25) and human UbcH5c cDNA as the template. The PCR fragment was digested with BsaI and BamHI, and then ligated into pET24D (Novagen) generating 6× His-UbcH5c. […] Plates were washed six times with 1× PBS and readings were taken using the fluorescence plate reader with excitation and emission wavelengths of 485 nm and 535 nm, respectively.

[2] = system: E3 ubiquitylation reaction containing E1, E2 (UbcH5c) and E3; test: E3 ligase inhibition assay using 5′-IAF-UBA1 detection and anti-ubiquitin immunoblot; assay type: biochemical, human; settings: pre-incubated with various concentrations for 30 minutes at room temperature before adding ubiquitin and ATP; FIGS. 9A-D
Procedure: E3 ligase reactions contained 10 nM GST-Praja1, 500 nM 6× His-SUMO-CARP2 or 500 nM 6× His-SUMO-MuRF1 as E3s, 50 nM E1, 150 nM UbcH5c (E2), 500 ng Ubiquitin, 2 mM ATP, 50 mM Tris-HCl pH8.0, 5 mM MgCl2, 0.1 mM DTT. For measuring SCF^Atrogin-1 E3 ligase activity, the reaction was assembled essentially as described above except that the E3 ligase contained 6× His-SUMO-Atrogin-1, Cullin-1 (“Cul1”), Roc-1 (“Rbx-1 ”) and 6× His-Skp1 (250 nM each). In order to obtain large amounts of the Cul1-Rbx1 complex for the SCF complex, we used a procedure to overexpress the Cul1-Rbx1 complex in E. coli. Zheng, et al., Nature, 416(6882):703-9 (2002). The Cull gene was split into two halves (residues 1-410 and residues 411-776) and co-expressed with GST-tagged Rbx1 as three different polypeptide chains. A PCR product encoding Skp1 was generated using the primers 5′-[…]-3′ (SEQ ID NO:28) and 5′-[…]-3′ (SEQ ID NO:29) and human Skp1 cDNA as the template. […]
For inhibition assays, reactions containing E1, E2, and E3 were pre-incubated with various concentrations of NEM and ubistatin A for 30 minutes at room temperature before initiating the reaction by adding ubiquitin and ATP. […] The wells were washed with 1× PBS and readings were taken using a fluorescence plate reader with excitation and emission wavelengths of 485 nm and 535nm, respectively. […]

## CCN1C(=O)C=CC1=O [NEM]
[1]
  IC50: 34.2 µM
[2]
  inhibition of the E3 ubiquitylation assay: inhibited

## O=C(Nc1ccc(/C=C/c2ccc(NC(=O)c3cc(S(=O)(=O)O)c4cccnc4c3O)cc2S(=O)(=O)O)c(S(=O)(=O)O)c1)c1cc(S(=O)(=O)O)c2cccnc2c1O [ubistatinA]
[1]
  IC50: 0.421 µM
[2]
  inhibition of the E3 ubiquitylation assay: inhibited
